Results from patent US20240279615A1, “COMPOSITIONS COMPRISING DIPEPTIDES AND TRACE ELEMENTS” (Evonik Operations GmbH, priority 2021, published 2024).
“Also recorded” adds a separate entry of the source. Where a SMILES comes first, the peptide text is derived from it. Bridges are numbered along the chain shown (N, C = ends). Roman numbers before positions name the chains, in order.

Experiments:
[1] = tested on: Human mesenchymal stem cells (MSCs); assay: In vitro cytotoxicity assay (CellTiter-Glo ATP viability) on MSCs; assay type: cell-based; conditions: for positive effect on viability of dipeptide combined with Cu(II): 24 h, selected combinations of dipeptide and Cu(II)
Protocol: (§1) Human mesenchymal stem cells (MSCs) were cultivated in MesenCult™-ACF Plus Culture Kit (Stemcell Technologies). The medium was prepared according to the manufacturer's instructions with addition of […] gentamicin and 2 mM I-glutamine. Agarabi CHO cells were cultivated in ActiPro medium supplemented with 6 mM I-glutamine. “Complete growth medium” references the medium with added supplements used for the cultivation of the corresponding cell type.
(§2) Stock solutions of Cu(II), I-cysteine, N, N′-di-I-alanyl-I-cysteine ((Ala-Cys)2) and N, N′-di-I-lysyl-I-cysteine ((Lys-Cys)2) were brought into solution in the corresponding complete growth medium immediately prior to their use. For the assay performed with combinations of Cu(II) and I-cysteine, (Ala-Cys)2 or (Lys-Cys)2 on MSCs, the dissolved single compounds were mixed together at 2× treatment concentration. On MSCs, I-cysteine and the dipeptides were tested at 0.5 mM, 1 mM and 5 mM; Cu(II) was tested at 0.2 μM, 1 μM and 5 μM. For the treatment of Agarabi CHO cells, serial dilutions of I-cysteine, (Ala-Cys)2 and (Lys-Cys)2 stock solutions in complete growth medium were performed with 2× treatment concentration at each dilution step. On Agarabi CHO cells, I-cysteine and the dipeptides were tested at 2.5 mM, 5 mM and 10 mM; Cu(II) was tested at 2.5 μM, 10 μM and 40 μM.
(§3) The cytotoxicity of the test compounds and their combinations was assayed on MSCs and Agarabi CHO cells cultivated in white 96-well cell culture plates at 5.000 cells/well. MSCs (50 μL/well) were cultivated for 24 h in a CO2-incubator (37° C., 5% CO2, 95% humidity) to ensure cell adhesion. This was followed by the addition of the prepared 2× concentrated test compounds and mixtures (50 μL/well). […]
(§4) After incubation, the viability of the treated cells was determined based on adenosine triphosphate (ATP) quantification using the CellTiter-Glo® Luminescent Cell Viability Assay (Promega) according to the manufacturer's instructions.
(§5) To calculate the cell viability, resulting luminescence values were averaged and normalized to the signal emitted by the untreated cells.

[2] = tested on: Agarabi CHO cells; assay: In vitro cytotoxicity assay (CellTiter-Glo ATP viability) on Agarabi CHO cells; assay type: cell-based; conditions: for positive effect on viability of dipeptide combined with Cu(II): Agarabi CHO cells, 96 h, selected combinations of dipeptide and Cu(II)
Protocol: as §1, §2, §3, §4, §5

What does the source list for `O.O.O.O.O.O=S(=O)([O-])[O-].[Cu+2]` [Cu(II), Copper (II) sulfate pentahydrate, reference compound]?
effect of single component on cell viability ([1]; single component controls, L-cysteine and dipeptides up to 5 mM, Cu(II) up to 5 μM): did not have a negative effect on viability; effect of single component on cell viability ([2]; CHO cells, single component control, Cu(II) up to 40 μM): did not have a negative effect on viability

`C[C@H](N)C(=O)N[C@@H](CSSC[C@H](NC(=O)[C@H](C)N)C(=O)O)C(=O)O` [(Ala-Cys)2, N,N′-di-L-alanyl-L-cystine] (I: H-Ala-Cys-OH / II: H-Ala-Cys-OH; disulfide I:2-II:2) was tested. Which “positive effect on viability of dipeptide combined with Cu(II)” value (from here on “positive effect on viability”) [1] did it give?
Its value is “pronounced positive effect on viability; also recorded: viability was even increased”.

And the “positive effect on viability” value [2]?
Its value is “pronounced positive effect on viability; also recorded: viability was even increased”.

For `NCCCC[C@H](N)C(=O)N[C@@H](CSSC[C@H](NC(=O)[C@@H](N)CCCCN)C(=O)O)C(=O)O` [(Lys-Cys)2, N,N′-di-L-lysyl-L-cystine] (I: H-Lys-Cys-OH / II: H-Lys-Cys-OH; disulfide I:2-II:2), which “positive effect on viability” value [1] is on record?
The value was “pronounced positive effect on viability; also recorded: viability was even increased”.

And the “positive effect on viability” value [2]?
Its value is “pronounced positive effect on viability; also recorded: viability was even increased”.
